Active and inactive are the calls of the source. No cut-off for these calls is given here.
What was measured:
MCF7 [1] = test: Inhibition of cell migration in human MCF7 cells assessed as reduction in wound healing at 1 umol/L measured upto 72 hrs by scratch assay; type: functional, cell-based; settings: dose 1.0 µmol/L
MCF7 [2] = test: Inhibition of cell migration in human MCF7 cells assessed as reduction in wound healing at 10 umol/L measured upto 72 hrs by scratch assay; type: functional; settings: MCF7, 72 h, dose 10 µmol/L
MCF7 [3] = test: Induction of apoptosis in human MCF7 cells assessed as increase in early apoptotic cells after 48 hrs by flow cytometry analysis; type: functional, cell-based
MCF7 [4] = test: Induction of apoptosis in human MCF7 cells assessed as increase in AMPK mRNA level at 1 to 10 umol/L after 48 hrs by qRT-PCR analysis; type: functional, cell-based; settings: dose 1-10 µmol/L
MCF7 [5] = test: Induction of apoptosis in human MCF7 cells assessed as increase in Bcl-2 mRNA level at 1 to 10 umol/L after 48 hrs by qRT-PCR analysis; type: functional, cell-based; settings: dose 1-10 µmol/L
MCF7 [6] = test: Induction of apoptosis in human MCF7 cells assessed as decrease in c-Myc mRNA level at 1 to 10 umol/L after 48 hrs by qRT-PCR analysis; type: functional, cell-based; settings: dose 1-10 µmol/L
MCF7 [7] = test: Induction of apoptosis in human MCF7 cells assessed as increase in AMPK mRNA level at 1 to 10 umol/L by qRT-PCR analysis; type: functional, cell-based; settings: dose 1-10 µmol/L, TDE = time-dependent effect
MCF7 [8] = test: Induction of apoptosis in human MCF7 cells assessed as increase in Bcl-2 mRNA level at 1 to 10 umol/L by qRT-PCR analysis; type: functional, cell-based; settings: dose 1-10 µmol/L, TDE = time-dependent effect
MCF7 [9] = test: Induction of apoptosis in human MCF7 cells assessed as decrease in c-Myc mRNA level at 1 to 10 umol/L by qRT-PCR analysis; type: functional, cell-based; settings: dose 1-10 µmol/L, TDE = time-dependent effect
MCF7 [10] = test: Induction of apoptosis in human MCF7 cells assessed as increase in AMPK mRNA level after 48 hrs by qRT-PCR analysis; type: functional, cell-based; settings: dose 1-10 µmol/L
MCF7 [11] = test: Induction of apoptosis in human MCF7 cells assessed as increase in Bcl-2 mRNA level after 48 hrs by qRT-PCR analysis; type: functional, cell-based; settings: dose 1-10 µmol/L
MCF7 [12] = test: Induction of apoptosis in human MCF7 cells assessed as decrease in c-Myc mRNA level after 48 hrs by qRT-PCR analysis; type: functional, cell-based; settings: dose 1-10 µmol/L
[13] = Fluorescent property of compound in PBS at pH 7.4 assessed as excitation wavelength by microplate reader analysis; type: physicochemical; settings: buffer
[14] = Fluorescent property of compound in PBS at pH 7.4 assessed as emission wavelength by microplate reader analysis; type: physicochemical; settings: buffer
[15] = Drug uptake in human MCF7 cells assessed as fluorescence emission by fluorescence microscopic analysis; type: ADME, cell-based
[16] = Drug uptake in HEK293 cells assessed as fluorescence emission by fluorescence microscopic analysis; type: ADME, cell-based; settings: human
[17] = biological target: Bromodomain-containing protein 4 (Homo sapiens) (UniProt O60885); test: Binding affinity to recombinant BRD4 (unknown origin) in PBS at pH 7.4 assessed as increase in fluorescence intensity measured after 30 mins by TR-FRET assay; settings: dose 0.4-3.1 µg/ml
[18] = biological target: Bromodomain-containing protein 3 (Homo sapiens) (UniProt Q15059); test: Binding affinity to recombinant BRD3 (unknown origin) in PBS at pH 7.4 assessed as increase in fluorescence intensity measured after 30 mins by TR-FRET assay; settings: dose 15.0 µmol/L
Chain of Bromodomain-containing protein 3 (Homo sapiens) (Q15059 2-726 limits assumed): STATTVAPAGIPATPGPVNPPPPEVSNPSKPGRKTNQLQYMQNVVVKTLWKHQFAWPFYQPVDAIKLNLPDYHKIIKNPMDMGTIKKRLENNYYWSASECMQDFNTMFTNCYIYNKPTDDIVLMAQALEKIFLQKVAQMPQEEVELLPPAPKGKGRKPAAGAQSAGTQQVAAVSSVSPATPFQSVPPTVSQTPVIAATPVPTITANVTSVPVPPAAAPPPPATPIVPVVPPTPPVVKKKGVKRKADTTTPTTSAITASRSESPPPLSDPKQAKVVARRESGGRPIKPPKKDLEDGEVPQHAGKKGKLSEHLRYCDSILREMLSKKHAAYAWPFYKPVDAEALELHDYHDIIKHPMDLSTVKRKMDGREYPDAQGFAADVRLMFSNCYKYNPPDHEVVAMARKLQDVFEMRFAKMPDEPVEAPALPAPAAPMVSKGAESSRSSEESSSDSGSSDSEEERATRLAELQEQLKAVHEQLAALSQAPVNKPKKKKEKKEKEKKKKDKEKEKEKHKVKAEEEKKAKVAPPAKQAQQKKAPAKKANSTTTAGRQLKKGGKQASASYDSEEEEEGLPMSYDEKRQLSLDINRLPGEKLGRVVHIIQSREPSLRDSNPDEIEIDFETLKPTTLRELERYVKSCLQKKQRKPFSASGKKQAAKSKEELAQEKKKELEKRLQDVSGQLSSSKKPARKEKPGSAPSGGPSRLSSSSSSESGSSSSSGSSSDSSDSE

[19] = biological target: Bromodomain-containing protein 4 (Homo sapiens) (UniProt O60885); test: Binding affinity to recombinant BRD4 (unknown origin) in PBS at pH 7.4 assessed as increase in fluorescence intensity at […] in presence of JQ1(+) by TR-FRET assay; settings: time 30.0 min
[20] = biological target: Bromodomain-containing protein 3 (Homo sapiens) (UniProt Q15059); test: Binding affinity to recombinant BRD3 (unknown origin) in PBS at pH 7.4 assessed as increase in fluorescence intensity at […] in presence of JQ1(+) by TR-FRET assay; settings: time 30.0 min
[21] = Drug uptake in human MCF7 cells nucleus assessed as fluorescence intensity at 15 umol/L by acridine orange dye based analysis; type: ADME, cell-based; settings: mcf7, 15 µM, dose 15 µmol/L
[22] = Drug uptake in human MCF7 cells nucleus assessed as fluorescence intensity at 15 umol/L in presence of JQ1(+) by acridine orange dye based analysis; type: ADME, cell-based; settings: mcf7, 15 µM, dose 15 µmol/L
[23] = Drug uptake in fixed human MCF7 cells nucleus assessed as fluorescence intensity in presence of BRD3 antibody by acridine orange dye based analysis; type: ADME, cell-based
[24] = Drug uptake in fixed human MCF7 cells nucleus assessed as fluorescence intensity in presence of BRD4 antibody by acridine orange dye based analysis; type: ADME, cell-based
[25] = Drug uptake in BRD3 silenced human MCF7 cells nucleus assessed as fluorescence intensity at 15 umol/L by acridine orange dye based analysis; type: ADME, cell-based; settings: mcf7, 15 µM, dose 15 µmol/L
[26] = Drug uptake in BRD4 silenced human MCF7 cells nucleus assessed as fluorescence intensity at 15 umol/L by acridine orange dye based analysis; type: ADME, cell-based; settings: mcf7, 15 µM, dose 15 µmol/L
[27] = Drug uptake in BRD3 silenced fixed human MCF7 cells nucleus assessed as fluorescence intensity at 15 umol/L by acridine orange dye based analysis; type: ADME, cell-based; settings: mcf7, 15 µM, dose 15 µmol/L
[28] = Drug uptake in BRD4 silenced fixed human MCF7 cells nucleus assessed as fluorescence intensity at 15 umol/L by acridine orange dye based analysis; type: ADME, cell-based; settings: mcf7, 15 µM, dose 15 µmol/L
[29] = Drug uptake in human MCF7 cells xenografted mouse tumor tissue assessed as fluorescence intensity at 15 umol/L by acridine orange dye based fluorescence microscopic assay; type: ADME, cell-based; settings: in vivo, 15 µM, dose 15 µmol/L
[30] = Drug uptake in human MCF7 cells xenografted nude mouse tumor tissue assessed as fluorescence intensity at 15 umol/L in presence of JQ1(+) by acridine orange dye based fluorescence microscopic assay; type: ADME, Neoplasm; settings: in vivo, 15 µM, dose 15 µmol/L
[31] = Drug uptake in human MCF7 cells xenografted nude mouse tumor tissue in presence of BRD3 antibody by immunofluorescence analysis; type: ADME, Neoplasm; settings: in vivo
[32] = Drug uptake in human MCF7 cells xenografted nude mouse tumor tissue in presence of BRD4 antibody by immunofluorescence analysis; type: ADME, Neoplasm; settings: in vivo
MCF7 [33] = test: Antiproliferative activity against human MCF7 cells assessed as reduction in cell viability by MTT assay; type: functional, cell-based

SMILES	inhibition (MCF7 [1])	inhibition at 10 µM (MCF7 [2]) [%]	Activity (MCF7 [3])	Activity (MCF7 [4])	Activity (MCF7 [5])	Activity (MCF7 [6])	Activity (MCF7 [7])	Activity (MCF7 [8])	Activity (MCF7 [9])	Activity (MCF7 [10])	Activity (MCF7 [11])	Activity (MCF7 [12])	Activity [13] [nm]	Activity [14] [nm]	Drug uptake [15]	Drug uptake [16]	also measured
Cc1sc2c(c1C)C(c1ccc(Cl)cc1)=N[C@@H](CC(=O)OC(C)(C)C)c1nnc(C)n1-2	Active	100	Active	Active	Active	Active	Tde	Tde	Tde	Dose-Dependent Effect	Dose-Dependent Effect	Dose-Dependent Effect					
Cc1sc2c(c1C)C(c1ccc(Cl)cc1)=N[C@@H](CC(=O)NCCCCNS(=O)(=O)c1cccc3c(N(C)C)cccc13)c1nnc(C)n1-2													350	495	Active	Not Active	
Cc1sc2c(c1C)C(c1ccc(Cl)cc1)=N[C@@H](CC(=O)NCCCCCNS(=O)(=O)c1cccc3c(N(C)C)cccc13)c1nnc(C)n1-2													350	495	Active	Not Active	
Cc1sc2c(c1C)C(c1ccc(Cl)cc1)=N[C@@H](CC(=O)NCCCNS(=O)(=O)c1cccc3c(N(C)C)cccc13)c1nnc(C)n1-2	Active	100	Active	Active	Active	Active	Tde	Tde	Tde	Dose-Dependent Effect	Dose-Dependent Effect	Dose-Dependent Effect	350	495	Active	Not Active	Activity [17]: Dose-Dependent Effect; Activity [18]: Dose-Dependent Effect; Activity [19]: inactive; Activity [20]: inactive; Drug uptake [21]: Active; Drug uptake [22]: Not Active; Drug uptake [23]: Active; Drug uptake [24]: Active; Drug uptake [25]: Active; Drug uptake [26]: Active; Drug uptake [27]: Active; Drug uptake [28]: Active; Drug uptake [29]: Active; Drug uptake [30]: Not Active; Drug uptake [31]: Active; Drug uptake [32]: Active; Activity (MCF7 [33]): Active

Source: ChEMBL document CHEMBL5620373, “Establishment of environment-sensitive probes targeting BRD3/BRD4 for imaging and therapy of tumor” (Eur J Med Chem, 2023)
